Data from patent US8628931B2, “mTOR pathway theranostic” (George Mason Intellectual Properties, Inc., priority 2005, dated 2014).

How the values were obtained:
Assay type in all cases: in vivo, mouse
[1] = test system: Rh30 alveolar rhabdomyosarcoma xenograft; experiment: CCI-779 suppression of Rh30 rhabdomyosarcoma xenograft tumor growth; settings: Rh30 orthotopic xenograft, SCID beige mice, 20 mg/kg IP every 3 days for 30 days, calipers
Experimental: (§1) (FIG. 6A) Time dependent CCI-779 inhibition of phosphorylation of mTOR pathway downstream substrates within tumor tissue in a xenograft treatment model. […] (FIG. 6B) CCI-779 inhibited tumor growth in Rh30 and RD mouse xenograft models. 2×10^6 cells in 0.2 mL total volume per mouse, from either Rh30 alveolar or RD embryonal cell lines, were injected orthotopically into the left hind leg gastrocnemius muscle of a SCID beige murine model. After 1 week, mice were assigned to control (n=8) or CCI-779 treatment groups (n=8). Tumor volume, as measured with calipers, was less in the CCI-779 treatment group as compared to the vehicle alone for both the Rh30 and RD xenografts --▴-- RD control, -▪- Rh30 plus CCI-779, -- ♦-- Rh30 control --X- RD plus CCI-779, (RD p=0.00008; Rh30 p=0.0002, Student's t-test). (FIG. 6C) CCI-779 was administered at 20 mg/kg/IP every 3 days for 30 days. Protein extracts from Rh30 and RD mouse xenograft tumors or uninvolved muscle were treated with CCI-779 or vehicle for 30 days and analyzed by Western blotting for S6 and 4EBP1 phosphorylation.
(§2) 5. In vivo xenograft tumor model. […] Tumor growth was measured every 3 days with calipers, and tumor volume was calculated by the formula V (mm^3)=a×b^2, where a is the longest tumor axis, and b is the shortest tumor axis. […]

[2] = test system: RD embryonal rhabdomyosarcoma xenograft; experiment: CCI-779 suppression of RD rhabdomyosarcoma xenograft tumor growth; settings: RD orthotopic xenograft, SCID beige mice, 20 mg/kg IP every 3 days for 30 days, calipers
Experimental: as §1, §2

[3] = test system: mTOR pathway substrates pS6 Ser235/236 and 4EBP1 Thr70; experiment: Time dependent inhibition of phosphorylation of mTOR pathway downstream substrates in xenograft treatment model (FIG. 6A); settings: non-involved muscle and tumor tissue, compared to actin
Experimental: as §1, §2

[4] = test system: mTOR downstream targets 4EBP1 and S6; experiment: Western blotting for S6 and 4EBP1 phosphorylation, Rh30 xenograft tumors or uninvolved muscle
Experimental: as §1, §2

[5] = test system: mTOR downstream targets 4EBP1 and S6; experiment: Western blotting for S6 and 4EBP1 phosphorylation, RD xenograft tumors or uninvolved muscle
Experimental: as §1, §2

CO[C@H]1C[C@@H]2CC[C@@H](C)[C@@](O)(O2)C(=O)C(=O)N2CCCC[C@H]2C(=O)O[C@H]([C@H](C)C[C@@H]2CC[C@@H](OC(=O)C(C)(CO)CO)[C@H](OC)C2)CC(=O)[C@H](C)/C=C(\C)[C@@H](O)[C@@H](OC)C(=O)[C@H](C)C[C@H](C)/C=C/C=C/C=C/1C [CCI-779, 40-[3-hydroxy(hydroxymethyl)methylpropanoate]-rapamycin]
Tumor volume / tumor growth compared to vehicle alone [1]: less and profoundly reduced the growth | Tumor volume / tumor growth compared to vehicle alone [2]: less and profoundly reduced the growth | Phosphorylation of 4EBP1 Thr70 [3]: inhibited phosphorylation | Phosphorylation of pS6 Ser235/236 [3]: inhibited phosphorylation | Phosphorylation of mTOR downstream targets (4EBP1 and S6) ([4]; Rh30 alveolar xenograft derived tumors): inhibited the expected phosphorylation | Phosphorylation of 4EBP1 ([4]; Rh30 muscle and tumor cells, 20 mg/kg IP every 3 days for 30 days, Western blot): suppresses phosphorylation | Phosphorylation of mTOR downstream targets (4EBP1 and S6) ([5]; RD embryonal xenograft derived tumors): inhibited the expected phosphorylation | Phosphorylation of 4EBP1 ([5]; RD muscle and tumor cells, 20 mg/kg IP every 3 days for 30 days, Western blot): suppresses phosphorylation
